ChEMBL document CHEMBL1201862, “PubChem BioAssay data set” (2004)
Structures can show the parent of a compound that is named as a salt.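 Cells were grown in 96-well plates and exposed to each compound for 48 hours at five concentrations; endpoints were interpolated linearly between bracketing concentrations, or set to the highest concentration if not reached. At the GI50, growth is halved.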 Activity calls are given as the source filed them. Rule as the data show it: active = GI50 up to about 1.1 µM and inactive = higher.

Assays:
Test in all cases: growth of human tumour cells (NCI), 48 h
HCT-116 = test system: HCT-116
RPMI-8226 = test system: RPMI-8226
HCT-15 = test system: HCT-15
SK-MEL-5 = test system: SK-MEL-5
PC-3 = test system: PC-3
TK-10 = test system: TK-10
NCI-H226 = test system: NCI-H226
U-251 = test system: U-251
NCI-H522 = test system: NCI-H522
MDA-MB-435 = test system: MDA-MB-435
SF-539 = test system: SF-539
MDA-MB-231 = test system: MDA-MB-231
KM12 = test system: KM12
HOP-62 = test system: HOP-62
UACC-62 = test system: UACC-62
SK-MEL-2 = test system: SK-MEL-2
T47D = test system: T47D
786-0 = test system: 786-0
UACC-257 = test system: UACC-257
NCI-H23 = test system: NCI-H23

| SMILES | GI50 (HCT-116) | GI50 (RPMI-8226) | GI50 (HCT-15) | GI50 (SK-MEL-5) | GI50 (PC-3) | GI50 (TK-10) | GI50 (NCI-H226) | GI50 (U-251) | GI50 (NCI-H522) | GI50 (MDA-MB-435) | GI50 (SF-539) | GI50 (MDA-MB-231) | GI50 (KM12) | GI50 (HOP-62) | GI50 (UACC-62) | GI50 (SK-MEL-2) | GI50 (T47D) | GI50 (786-0) | GI50 (UACC-257) | GI50 (NCI-H23) |
| --- | --- | --- | --- | --- | --- | --- | --- | --- | --- | --- | --- | --- | --- | --- | --- | --- | --- | --- | --- | --- |
| O=C(O)CC(NC(=O)/C(=C/c1ccccc1O)NC(=O)c1ccccc1)C(=O)O (stereo not given) | > 100 µM (inactive) | 82.6 µM (inactive) | 59.4 µM | > 100 µM (inactive) | 86.1 µM (inactive) | > 100 µM (inactive) | > 100 µM (inactive) | 54.7 µM (inactive) | 65.5 µM (inactive) | 85.9 µM (inactive) | > 100 µM (inactive) | > 100 µM (inactive) | > 100 µM (inactive) | > 100 µM (inactive) | 42.5 µM (inactive) | > 100 µM (inactive) | 79.4 µM (inactive) | > 100 µM (inactive) | > 100 µM (inactive) | > 100 µM (inactive) |
| Clc1ccc(C2ON=C(c3ccccc3)N2C23CC4CC(CC(C4)C2)C3)cc1Cl (stereo not given) | > 10 µM (inactive) | > 10 µM (inactive) | > 10 µM | > 10 µM (inactive) | > 10 µM (inactive) | > 10 µM (inactive) | > 10 µM (inactive) | > 10 µM (inactive) | > 10 µM (inactive) | > 10 µM (inactive) | > 10 µM (inactive) | > 10 µM (inactive) | > 10 µM (inactive) | > 10 µM (inactive) | > 10 µM (inactive) | > 10 µM (inactive) | > 10 µM (inactive) | > 10 µM (inactive) | > 10 µM (inactive) | > 10 µM (inactive) |
| O=C(O)CCCN/C(=C1\C(=O)C(=O)N(c2ccccc2)C1=O)c1ccccc1 | > 100 µM (inactive) | > 100 µM (inactive) | > 100 µM | > 100 µM (inactive) | > 100 µM (inactive) | > 100 µM (inactive) | > 100 µM (inactive) | > 100 µM (inactive) | > 100 µM (inactive) | > 100 µM (inactive) | 82 µM (inactive) | > 100 µM (inactive) | > 100 µM (inactive) | > 100 µM (inactive) | > 100 µM (inactive) | > 100 µM (inactive) | > 100 µM (inactive) | > 100 µM (inactive) | > 100 µM (inactive) | > 100 µM (inactive) |
| C[C@]12CC[C@@H]3c4ccc(O)cc4CC[C@H]3[C@@H]1CC[C@@H]2OC(=O)CCC1CCCC1 [ESTRADIOL CYPIONATE] | 17.3 µM (inactive) | 18.5 µM (inactive) | 16.2 µM | 17.5 µM (inactive) | 16.6 µM (inactive) | 23.4 µM (inactive) | 19.1 µM (inactive) | 18.7 µM (inactive) | 17.1 µM (inactive) | 10 µM (inactive) | 18.8 µM (inactive) | 17.5 µM (inactive) | 26.8 µM (inactive) | 18.8 µM (inactive) | 14.4 µM (inactive) | 23.2 µM (inactive) | 14.2 µM (inactive) | 16.3 µM (inactive) | 35 µM (inactive) | 17.7 µM (inactive) |
| N[C@@H](Cc1ccc(N(CCCl)CCCl)cc1)C(=O)O [MELPHALAN HYDROCHLORIDE] | 42.1 µM (inactive) | 44 µM (inactive) | 39.4 µM | 38.3 µM (inactive) | 37.4 µM (inactive) | 67.1 µM (inactive) | 49.9 µM (inactive) | 27 µM (inactive) | 25.2 µM (inactive) | 41.9 µM (inactive) | 16.6 µM (inactive) | 48.6 µM (inactive) | 71.1 µM (inactive) | 15.4 µM (inactive) | 11.2 µM (inactive) | 56.2 µM (inactive) | 14.1 µM (inactive) | 17.4 µM (inactive) | 42.5 µM (inactive) | 23 µM (inactive) |
